What was measured:
Experiment in all cases: relative viability (nuclei count vs DMSO), 5 days (fraction); higher = more cells survive
[1] = compound: CS(=O)(=O)N1CCN(Cc2cc3nc(-c4cccc5[nH]ncc45)nc(N4CCOCC4)c3s2)CC1 [Pictilisib] + C[C@@H](Oc1cc(-c2cnn(C3CCNCC3)c2)cnc1N)c1c(Cl)ccc(F)c1Cl [Crizotinib] (partner 1 µM)
Method in brief: (§1)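 Relative viability equals treated-well nuclei counts divided by vehicle-well nuclei counts. Counts came from 4× images of lung cancer cell lines grown in 1536-well plates for 5 days after pin-tool dosing on the day after seeding. Dosing used one drug alone or a fixed anchor-drug dose plus five library-drug doses (not always all listed) in √10 steps, and values are medians of duplicate plates.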

[2] = compound: NC1(c2ccc(-c3nc4ccn5c(=O)[nH]nc5c4cc3-c3ccccc3)cc2)CCC1 [MK-2206] + C[C@]1(O)C[C@@H](c2nc(-c3ccc4ccc(-c5ccccc5)nc4c3)c3c(N)nccn32)C1 [Linsitinib] (partner 1 µM)
Method in brief: as §1

[3] = compound: NC1(c2ccc(-c3nc4ccn5c(=O)[nH]nc5c4cc3-c3ccccc3)cc2)CCC1 [MK-2206] + COc1cccc2cc(-c3nc([C@H]4CC[C@H](C(=O)O)CC4)n4ncnc(N)c34)[nH]c12 [OSI-027] (partner 0.5 µM)
Method in brief: as §1

[4] = compound: NC1(c2ccc(-c3nc4ccn5c(=O)[nH]nc5c4cc3-c3ccccc3)cc2)CCC1 [MK-2206] + CS(=O)(=O)N1CCN(Cc2cc3nc(-c4cccc5[nH]ncc45)nc(N4CCOCC4)c3s2)CC1 [Pictilisib] (partner 1 µM)
Method in brief: as §1

[5] = compound: CS(=O)(=O)N1CCN(Cc2cc3nc(-c4cccc5[nH]ncc45)nc(N4CCOCC4)c3s2)CC1 [Pictilisib] + COc1cc2c(Oc3ccc(NC(=O)C4(C(=O)Nc5ccc(F)cc5)CC4)cc3F)ccnc2cc1OCCCN1CCOCC1 [Foretinib] (partner 0.25 µM)
Method in brief: as §1

**Q.** What does the source list for UMC-11?
**A.** relative viability ([1]; first compound 0.02 µM): 0.633; relative viability ([1]; first compound 0.06325 µM): 0.887; relative viability ([1]; first compound 0.6325 µM): 0.733; relative viability ([1]; first compound 2 µM): 0.58; relative viability ([2]; first compound 0.01 µM): 1.1; relative viability ([2]; first compound 0.03162 µM): 1.02; relative viability ([2]; first compound 0.3162 µM): 1.01; relative viability ([2]; first compound 1 µM): 1.01; relative viability ([3]; first compound 0.01 µM): 0.491; relative viability ([3]; first compound 0.03162 µM): 0.567; relative viability ([3]; first compound 0.3162 µM): 0.46; relative viability ([3]; first compound 1 µM): 0.521; relative viability ([4]; first compound 0.01 µM): 0.762; relative viability ([4]; first compound 0.03162 µM): 0.821; relative viability ([4]; first compound 0.3162 µM): 0.837; relative viability ([4]; first compound 1 µM): 0.616; relative viability ([5]; first compound 0.02 µM): 0.983; relative viability ([5]; first compound 0.06325 µM): 1.25; relative viability ([5]; first compound 0.6325 µM): 1.13; relative viability ([5]; first compound 2 µM): 0.979
